# From ChEMBL document CHEMBL1136176, “QSAR study on the affinity of some arylpiperazines towards the 5-HT1A/alpha1-adrenergic receptor using the E-state index” (Bioorg Med Chem Lett, 2003)
# Assays:
# Assay type in all cases: functional, tissue-based
# [1] = target: T1, 5-hydroxytryptamine receptor 1A (Rattus norvegicus) (UniProt P19327); assay: Antagonistic activity against 5-hydroxytryptamine 1A receptor in rat cerebral cortex using [3H]-8-OH-DPAT as radioligand.
# T1 sequence (whole entry): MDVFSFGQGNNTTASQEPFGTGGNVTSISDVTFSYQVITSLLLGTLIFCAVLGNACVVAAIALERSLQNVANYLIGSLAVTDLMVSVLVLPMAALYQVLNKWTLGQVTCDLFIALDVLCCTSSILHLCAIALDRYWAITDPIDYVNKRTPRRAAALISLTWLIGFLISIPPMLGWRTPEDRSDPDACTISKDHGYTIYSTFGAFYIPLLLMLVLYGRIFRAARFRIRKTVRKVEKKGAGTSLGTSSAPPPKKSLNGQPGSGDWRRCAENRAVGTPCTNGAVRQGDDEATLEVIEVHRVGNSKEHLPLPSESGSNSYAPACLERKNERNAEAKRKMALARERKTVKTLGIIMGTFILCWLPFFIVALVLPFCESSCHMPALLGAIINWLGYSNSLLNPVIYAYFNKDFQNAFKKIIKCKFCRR
# [2] = target: T1, 5-hydroxytryptamine receptor 1A (Rattus norvegicus); assay: Antagonistic activity against 5-hydroxytryptamine 1A receptor in rat cerebral cortex using [3H]8-OH-DPAT as radioligand.
# [3] = target: Adrenergic receptor alpha-1 (Rattus norvegicus) (UniProt P15823+P23944+P43140); assay: Antagonistic activity against alpha-1 adrenergic receptor in rat cerebral cortex using [3H]prazosin as radioligand.
pK1 [1],K1 [2],K2 [3],pK2 [3],Compound
8.26,5.5 nM,72 nM,7.14,O=C1C2CCCN2C(=O)CN1CCCCN1CCN(c2ccccc2C(F)(F)F)CC1 (stereo unspecified)
7.47,34 nM,25 nM,7.61,O=C1C2CCCN2C(=O)N1CCCN1CCN(c2cccc(Br)c2)CC1 (stereo unspecified)
7.56,27 nM,17 nM,7.76,N#Cc1ccccc1N1CCN(CCCN2CC(=O)N3CCCC3C2=O)CC1 (stereo unspecified)
5.34,4610 nM,811 nM,6.09,CCCNC(=O)c1ccccc1N1CCN(CCCN2CC(=O)N3CCCCC3C2=O)CC1 (stereo unspecified)
7.5,32 nM,27 nM,7.56,Cc1ccccc1N1CCN(CCCCN2CC(=O)N3CCCCC3C2=O)CC1 (stereo unspecified)
7.34,46 nM,13 nM,7.89,CCCOC(=O)c1ccccc1N1CCN(CCCN2C(=O)C3CCCCN3C2=O)CC1 (stereo unspecified)
6.72,193 nM,5420 nM,5.27,CC(C)C(=O)Nc1cccc(N2CCN(CCCCN3C(=O)C4CCCN4C3=O)CC2)c1 (stereo unspecified)
8.32,4.8 nM,41 nM,7.39,CCCOC(=O)c1ccccc1N1CCN(CCCCN2C(=O)C3CCCN3C2=O)CC1 (stereo unspecified)
6.09,808 nM,608 nM,6.22,CCCNC(=O)c1ccccc1N1CCN(CCCN2C(=O)C3CCCN3C2=O)CC1 (stereo unspecified)
7.19,65 nM,8.2 nM,8.09,N#Cc1ccccc1N1CCN(CCCN2C(=O)C3CCCCN3C2=O)CC1 (stereo unspecified)
8.4,4 nM,4.9 nM,8.31,N#Cc1ccccc1N1CCN(CCCCN2C(=O)C3CCCN3C2=O)CC1 (stereo unspecified)
8.66,2.2 nM,5 nM,8.3,CCCCOc1ccccc1N1CCN(CCCCN2C(=O)C3CCCCN3C2=O)CC1 (stereo unspecified)
5.93,1180 nM,393 nM,6.41,Nc1cccc(N2CCN(CCCN3C(=O)C4CCCN4C3=O)CC2)c1 (stereo unspecified)
6.57,266 nM,1440 nM,5.84,CC(C)C(=O)Nc1cccc(N2CCN(CCCN3CC(=O)N4CCCC4C3=O)CC2)c1 (stereo unspecified)
6.84,143 nM,29 nM,7.53,Cc1ccccc1N1CCN(CCCN2CC(=O)N3CCCCC3C2=O)CC1 (stereo unspecified)
6.75,179 nM,339 nM,6.47,O=C1C2CCCCN2C(=O)CN1CCCN1CCN(c2ccccc2C(F)(F)F)CC1 (stereo unspecified)

pK1 [1],K1 [2],K2 [3],pK2 [3],Compound
8.06,8.7 nM,10.5 nM,7.98,CCCCOc1ccccc1N1CCN(CCCCN2CC(=O)N3CCCC3C2=O)CC1 (stereo unspecified)
7.04,92 nM,13 nM,7.89,CCCCOc1ccccc1N1CCN(CCCN2CC(=O)N3CCCCC3C2=O)CC1 (stereo unspecified)
6.11,776 nM,4430 nM,5.35,CC(C)C(=O)Nc1cccc(N2CCN(CCCN3C(=O)C4CCCCN4C3=O)CC2)c1 (stereo unspecified)
7.78,16 nM,7 nM,8.15,Cc1ccccc1N1CCN(CCCCN2C(=O)C3CCCN3C2=O)CC1 (stereo unspecified)
6.66,220 nM,5.7 nM,8.25,Cc1ccccc1N1CCN(CCCN2C(=O)C3CCCCN3C2=O)CC1 (stereo unspecified)
7.55,28 nM,392 nM,6.41,CCCOC(=O)c1ccccc1N1CCN(CCCCN2CC(=O)N3CCCCC3C2=O)CC1 (stereo unspecified)
–,–,12 nM,7.93,CCCOC(=O)c1ccccc1N1CCN(CCCN2CC(=O)N3CCCC3C2=O)CC1 (stereo unspecified)
7.31,48 nM,17 nM,7.76,Cc1ccccc1N1CCN(CCCN2CC(=O)N3CCCC3C2=O)CC1 (stereo unspecified)
7.92,12 nM,25 nM,7.59,Cc1ccccc1N1CCN(CCCCN2CC(=O)N3CCCC3C2=O)CC1 (stereo unspecified)
7.17,68 nM,231 nM,6.64,Nc1cccc(N2CCN(CCCCN3C(=O)C4CCCCN4C3=O)CC2)c1 (stereo unspecified)
6.42,378 nM,521 nM,6.28,CCCNC(=O)c1ccccc1N1CCN(CCCCN2C(=O)C3CCCCN3C2=O)CC1 (stereo unspecified)
7.82,15 nM,6.4 nM,8.19,CCCCOc1ccccc1N1CCN(CCCN2C(=O)C3CCCN3C2=O)CC1 (stereo unspecified)
8.27,5.4 nM,5.9 nM,8.23,O=C1C2CCCCN2C(=O)N1CCCCN1CCN(c2cccc(Br)c2)CC1 (stereo unspecified)
5.91,1230 nM,1350 nM,5.87,CCCNC(=O)c1ccccc1N1CCN(CCCCN2CC(=O)N3CCCC3C2=O)CC1 (stereo unspecified)
6.7,198 nM,16100 nM,4.79,CC(C)C(=O)Nc1cccc(N2CCN(CCCCN3CC(=O)N4CCCCC4C3=O)CC2)c1 (stereo unspecified)
7.82,15 nM,30 nM,7.52,N#Cc1ccccc1N1CCN(CCCCN2CC(=O)N3CCCCC3C2=O)CC1 (stereo unspecified)
